Source: patent US8664399B2, “Substituted heterocyclic compounds as ion channel modulators” (Gilead Sciences, Inc., priority 2008, dated 2014)
pIC50: −log10 of the molar value.

How the values were obtained:
Format in all cases: cell-based
[1] = target: T1, human cardiac sodium channel, hNav1.5 (Homo sapiens, UniProt Q14524); experiment: Late INa screening assay (automated whole cell patch clamp, PatchXpress; late current generated with 10 μM Tefluthrin); conditions: HEK293 cells expressing hNav1.5; for inhibition at 10 µM: 10 μM test compound, read-out: Late Ina % blk (10 μM test cmpd)
T1 construct: host or cells: HEK293
Method: The late sodium current (Late INa) and peak sodium current (Peak INa) assays were performed on an automated electrophysiology platform, PatchXpress 7000A (MDS Analytical Technologies, Sunnyvale, Calif.), which uses the whole cell patch clamp technique to measure currents through the cell membrane of up to 16 cells at a time. The assay uses an HEK293 (human embryonic kidney) cell line heterologously expressing the wild-type human cardiac sodium channel, hNav1.5, purchased from Millipore (Billerica, Mass.). No beta subunits were coexpressed with the Na channel alpha subunit. Cells were maintained with standard tissue culture procedures and stable channel expression was maintained with 400 μg/ml Geneticin in the culture medium. Cells isolated for use on PatchXpress were incubated for 5 minutes in Versene 1X and then for 2 minutes in 0.0125% Trypsin-EDTA (both at 37° C.) to ensure that 80-90% of the cells are single and not part of a cell cluster. Experiments were carried out at 24-27° C.
For both the Late INa and Peak INa assays, series resistance compensation was set to 50% and whole-cell compensation is performed automatically. Currents were low-pass filtered at 10 kHz and digitized at 31.25 kHz. Currents through open sodium channels were automatically recorded and stored in the DataXpress2 database (MDS Analytical Technologies, Sunnyvale, Calif.). Analysis is performed using DataXpress2 analysis software and data are compiled in Excel.
Compound stocks were routinely made in glass vials to 10 mM in dimethyl sulfoxide (DMSO). In some cases, when compounds were not soluble in DMSO, they were made in 100% ethanol. Stocks were sonicated as necessary. The extracellular solution for screening Late INa was composed of: 140 mM NaCl, 4 mM KCl, 1.8 mM CaCl2, 0.75 mM MgCl2, and 5 mM HEPES with pH adjusted to 7.4 using NaOH. The extracellular solution for screening Peak INa was composed of: 20 mM NaCl, 120 mM N-methyl-D glucamine, 4 mM KCl, 1.8 mM CaCl2, 0.75 mM MgCl2, and 5 mM HEPES with pH adjusted to 7.4 using HCl. The intracellular solution used to perfuse the inside of the cells for both the Late INa and Peak INa assays contained: 120 mM CsF, 20 mM CsCl, 5 mM EGTA, 5 mM HEPES and pH adjusted to 7.4 with CsOH. […] The 0Na extracellular solution used at the end of each experiment for the Late INa and Peak INa assays to measure baseline current contained: 140 mM N-methyl-D-glucamine; 4 mM KCl; 1.8 mM CaCl2; 0.75 mM MgCl2; 5 mM HEPES and pH was adjusted to 7.4 with HCl.
For the Late INa assay, sodium channels were activated every 10 seconds (0.1 Hz) by depolarizing the cell membrane to −20 mV for 250 milliseconds (ms) from a holding potential of −120 mV. In response to a −20 mV voltage step, typical Nav1.5 sodium currents activate rapidly to a peak negative current and then inactivate nearly completely within 3-4 ms.
All compounds were tested to determine their activity in blocking the late sodium current. Late INa current was generated by adding 10 μM Tefluthrin (pyrethroid) to the extracellular solution while recording Na currents.

[2] = target: T2, hERG potassium channel (Homo sapiens, UniProt Q12809); experiment: hERG screening assay (PatchXpress automated patch clamp, CHO cell line); conditions: CHO cells; for hERG Patch Clamp hERG % blk (1 μm test cmpd): 1 μm test compound; for hERG Patch Clamp hERG % blk (10 μm test cmpd): 10 μm test compound
T2 construct: expressed in transfected cells; host or cells: CHO (Chinese Hamster Ovary)
Method: Compounds were screened to test their activity in blocking the hERG potassium channel. The hERG channel is heterologously expressed in a CHO (Chinese Hamster Ovary) cell line. Cells were maintained with standard tissue culture procedures and stable channel expression is maintained with 500 μg/ml G418 in the culture medium. Cells were harvested for testing on the PatchXpress automated patch clamp with Accumax (Innovative Cell Technologies, San Diego, Calif.) to isolate single cells.
The following solutions were used for electrophysiological recordings. The external solution contains: 2 mM CaCl2; 2 mM MgCl2; 4 mM KCl; 150 mM NaCl; 10 mM Glucose; 10 mM HEPES (pH 7.4 with 1M NaOH, osmolarity). The internal solution contained: 140 mM KCl, 10 mM MgCl2, 6 mM EGTA, 5 mM HEPES, 5 mM ATP (pH adjusted to 7.25 with KOH).
hERG channels are activated when the voltage is stepped to +20 mV from the −80 mV holding potential. During a 5 second step at +20 mV, the channels activate and then largely inactivate, so the currents are relatively small. Upon returning to −50 mV from +20 mV, hERG currents transiently become much larger as inactivation is rapidly removed and then the channel closes. The first step to −50 mV for 300 ms is used as a baseline for measuring the peak amplitude during the step to −50 mV after channel activation. The peak current at −50 mV was measured both under control conditions and after addition of compound.
All compounds were prepared as 10 mM DMSO stocks in glass vials. Stock solutions were mixed by vigorous vortexing and sonication for about 2 minutes at room temperature. For testing, compounds were diluted in glass vials using an intermediate dilution step in pure DMSO and then further diluted to working concentrations in external solution. Dilutions were prepared no longer than 20 minutes before use.
After achieving the whole-cell configuration, cells were monitored for 90 seconds to assess stability and washed with external solution for 66 seconds. The voltage protocol described above was then applied to the cells every 12 seconds and throughout the whole procedure. Only cells with stable recording parameters and meeting specified health criteria were allowed to enter the compound addition procedure.
External solution containing 0.1% DMSO (vehicle) was applied to the cells first to establish the control peak current amplitude. After allowing the current to stabilize for 3 to 5 minutes, 1 μM and then 10 μM test compounds was applied. Each compound concentration was added 4 times and cells were kept in test solution until the effect of the compound reaches steady state or for a maximum of 12 minutes. After addition of test compound, a positive control (1 μM Cisapride) was added and must block >95% of the current for the experiment to be considered valid. Washout in the external solution compartment was performed until the recovery of the current reaches steady state. Data were analyzed using DataXpress, Clampfit (Molecular Devices, Inc., Sunnyvale) and Origin 7 (Originlab Corp.)

[3] = target: T3, human Nav1.7 (hNav1.7+β1 subunits) channels expressed in HEK293 cells (Homo sapiens, UniProt Q15858); experiment: Nav1.7 screening assay (fluorescent dye-based membrane potential assay, veratridine); conditions: veratridine 50 μmol/L, read-out: IC50 for reduction of Nav1.7 Na+ current
T3 construct: expressed in transfected cells; host or cells: HEK293

T1 sequence (Q14524 whole entry): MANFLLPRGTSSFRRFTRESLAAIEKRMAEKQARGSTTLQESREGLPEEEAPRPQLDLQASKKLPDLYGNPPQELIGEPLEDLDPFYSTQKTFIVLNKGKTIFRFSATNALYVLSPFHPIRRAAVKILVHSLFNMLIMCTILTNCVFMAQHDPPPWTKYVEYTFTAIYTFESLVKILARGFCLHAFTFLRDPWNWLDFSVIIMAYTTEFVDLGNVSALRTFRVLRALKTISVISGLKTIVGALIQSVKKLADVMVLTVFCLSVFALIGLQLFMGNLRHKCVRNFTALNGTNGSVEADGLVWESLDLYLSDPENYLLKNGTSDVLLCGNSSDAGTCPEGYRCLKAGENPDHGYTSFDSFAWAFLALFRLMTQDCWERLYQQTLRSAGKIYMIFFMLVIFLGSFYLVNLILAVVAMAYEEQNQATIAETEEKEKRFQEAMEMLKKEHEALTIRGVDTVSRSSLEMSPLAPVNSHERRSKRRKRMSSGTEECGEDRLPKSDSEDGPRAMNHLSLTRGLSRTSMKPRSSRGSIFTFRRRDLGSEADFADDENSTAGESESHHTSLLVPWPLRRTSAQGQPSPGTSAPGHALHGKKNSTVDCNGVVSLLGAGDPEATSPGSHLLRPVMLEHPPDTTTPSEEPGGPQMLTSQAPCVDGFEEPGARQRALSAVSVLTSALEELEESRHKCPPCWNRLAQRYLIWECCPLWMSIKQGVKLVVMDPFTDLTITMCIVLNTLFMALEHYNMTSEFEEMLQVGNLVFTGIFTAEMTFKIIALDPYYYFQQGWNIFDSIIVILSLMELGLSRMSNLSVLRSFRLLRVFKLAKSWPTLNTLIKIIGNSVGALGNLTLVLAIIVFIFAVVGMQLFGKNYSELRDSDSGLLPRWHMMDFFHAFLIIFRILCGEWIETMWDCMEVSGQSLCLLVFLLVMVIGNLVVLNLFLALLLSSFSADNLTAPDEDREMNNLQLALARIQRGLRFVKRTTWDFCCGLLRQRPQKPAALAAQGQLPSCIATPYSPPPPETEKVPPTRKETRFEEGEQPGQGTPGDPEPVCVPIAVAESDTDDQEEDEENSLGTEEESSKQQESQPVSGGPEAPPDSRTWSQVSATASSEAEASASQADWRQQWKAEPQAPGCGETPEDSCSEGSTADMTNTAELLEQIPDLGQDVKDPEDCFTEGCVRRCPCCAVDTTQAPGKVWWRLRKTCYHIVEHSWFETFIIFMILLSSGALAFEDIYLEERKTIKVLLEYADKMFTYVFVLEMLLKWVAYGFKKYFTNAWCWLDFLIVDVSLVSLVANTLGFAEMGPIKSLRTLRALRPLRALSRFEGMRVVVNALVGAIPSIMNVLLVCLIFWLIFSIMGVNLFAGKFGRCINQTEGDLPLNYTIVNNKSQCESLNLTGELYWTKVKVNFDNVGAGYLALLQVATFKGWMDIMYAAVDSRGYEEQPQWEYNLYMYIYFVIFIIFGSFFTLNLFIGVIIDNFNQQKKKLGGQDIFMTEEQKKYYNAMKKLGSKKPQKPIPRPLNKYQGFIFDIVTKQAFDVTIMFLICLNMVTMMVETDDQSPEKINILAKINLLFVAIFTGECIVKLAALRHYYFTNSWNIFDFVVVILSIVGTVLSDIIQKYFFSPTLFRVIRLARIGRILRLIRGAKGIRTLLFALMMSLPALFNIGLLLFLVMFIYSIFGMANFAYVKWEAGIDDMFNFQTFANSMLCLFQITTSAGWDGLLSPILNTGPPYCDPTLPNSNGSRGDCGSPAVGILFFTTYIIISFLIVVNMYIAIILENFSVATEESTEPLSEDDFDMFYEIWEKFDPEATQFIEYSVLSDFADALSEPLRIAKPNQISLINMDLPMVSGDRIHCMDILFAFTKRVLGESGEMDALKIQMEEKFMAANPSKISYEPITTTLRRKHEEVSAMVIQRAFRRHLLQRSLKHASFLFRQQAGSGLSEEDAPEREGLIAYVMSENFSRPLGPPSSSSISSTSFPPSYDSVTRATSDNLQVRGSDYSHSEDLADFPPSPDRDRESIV
T2 sequence (Q12809 whole entry): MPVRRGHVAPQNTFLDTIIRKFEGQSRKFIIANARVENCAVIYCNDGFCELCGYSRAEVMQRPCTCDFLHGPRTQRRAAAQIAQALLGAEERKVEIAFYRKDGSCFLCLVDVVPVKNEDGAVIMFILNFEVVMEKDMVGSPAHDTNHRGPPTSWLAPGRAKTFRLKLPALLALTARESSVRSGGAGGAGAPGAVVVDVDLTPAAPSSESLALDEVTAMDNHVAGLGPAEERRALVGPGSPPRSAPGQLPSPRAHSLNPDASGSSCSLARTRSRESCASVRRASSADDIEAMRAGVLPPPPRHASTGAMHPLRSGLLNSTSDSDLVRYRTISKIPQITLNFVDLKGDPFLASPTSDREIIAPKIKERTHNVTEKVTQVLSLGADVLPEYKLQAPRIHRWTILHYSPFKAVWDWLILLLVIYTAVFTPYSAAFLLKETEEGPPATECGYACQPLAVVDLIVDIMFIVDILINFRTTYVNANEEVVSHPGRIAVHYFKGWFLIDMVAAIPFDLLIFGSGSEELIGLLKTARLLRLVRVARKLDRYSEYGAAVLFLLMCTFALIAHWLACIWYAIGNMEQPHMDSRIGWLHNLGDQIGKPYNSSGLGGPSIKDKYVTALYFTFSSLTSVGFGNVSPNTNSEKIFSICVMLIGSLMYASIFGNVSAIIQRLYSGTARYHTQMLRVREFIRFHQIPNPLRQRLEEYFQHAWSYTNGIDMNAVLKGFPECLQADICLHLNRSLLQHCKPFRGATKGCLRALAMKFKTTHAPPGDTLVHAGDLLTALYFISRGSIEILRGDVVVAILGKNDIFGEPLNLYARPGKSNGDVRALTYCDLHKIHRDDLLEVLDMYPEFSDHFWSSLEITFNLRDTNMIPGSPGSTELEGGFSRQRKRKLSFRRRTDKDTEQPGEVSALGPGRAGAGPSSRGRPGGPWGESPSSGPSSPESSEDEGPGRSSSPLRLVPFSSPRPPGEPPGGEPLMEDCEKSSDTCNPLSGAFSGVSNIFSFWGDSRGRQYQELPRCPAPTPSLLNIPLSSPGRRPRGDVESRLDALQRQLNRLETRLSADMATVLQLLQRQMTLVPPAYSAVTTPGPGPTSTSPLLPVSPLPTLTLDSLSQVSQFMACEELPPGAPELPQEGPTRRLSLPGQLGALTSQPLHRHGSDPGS

Cc1nc2ccc(Cl)cc2c(-c2ccccc2)c1-c1nnc(Cc2ccc(Cl)cc2)o1 [PT-005, 6-chloro-3-[5-(4-chlorobenzyl)-1,3,4-oxadiazol-2-yl]-2-methyl-4-phenylquinoline]
inhibition at 10 µM [1]: 43.6% | hERG Patch Clamp hERG % blk (1 μm test cmpd) [2]: 10.5% | hERG Patch Clamp hERG % blk (10 μm test cmpd) [2]: 32.5% | pIC50 [3]: 6.70

CCOC(=O)c1c(CN2C(=O)CCC2=O)nc2ccc(Cl)cc2c1-c1ccccc1 [PT-009, ethyl 6-chloro-2-[(2,5-dioxopyrrolidin-1-yl)methyl]-4-phenylquinoline-3-carboxylate]
inhibition at 10 µM [1]: 53.3% | hERG Patch Clamp hERG % blk (1 μm test cmpd) [2]: 24.0% | hERG Patch Clamp hERG % blk (10 μm test cmpd) [2]: 65.5%

CCOC(=O)c1c(Cn2cnnn2)nc2ccc(Cl)cc2c1-c1ccccc1 [PT-010, ethyl 6-chloro-4-phenyl-2-(1H-tetrazol-1-ylmethyl)quinoline-3-carboxylate]
inhibition at 10 µM [1]: 41.6% | hERG Patch Clamp hERG % blk (1 μm test cmpd) [2]: 18.5% | hERG Patch Clamp hERG % blk (10 μm test cmpd) [2]: 66.0%

Cc1nc2ccc(Cl)cc2c(-c2ccccc2)c1C(=O)OC(c1ccccc1)C1CC1 (stereo not drawn) [PT-012, cyclopropyl(phenyl)methyl 6-chloro-2-methyl-4-phenylquinoline-3-carboxylate]
inhibition at 10 µM [1]: 20.5% | hERG Patch Clamp hERG % blk (1 μm test cmpd) [2]: 10.5% | hERG Patch Clamp hERG % blk (10 μm test cmpd) [2]: 13.5%

Cc1nc2ccc(Cl)cc2c(-c2ccccc2)c1C(=O)OCC1CC1 [PT-016, cyclopropylmethyl 6-chloro-2-methyl-4-phenylquinoline-3-carboxylate]
inhibition at 10 µM [1]: 59% | hERG Patch Clamp hERG % blk (1 μm test cmpd) [2]: 30.5% | hERG Patch Clamp hERG % blk (10 μm test cmpd) [2]: 73.0% | pIC50 [3]: 4.43

Cc1nc2ccc(Cl)cc2c(-c2ccccc2)c1C(=O)N1CCC(c2ccc(C(N)=O)cc2)CC1 [PT-017, 4-{1-[(6-chloro-2-methyl-4-phenylquinolin-3-yl)carbonyl]piperidin-4-yl}benzamide]
inhibition at 10 µM [1]: 29.4% | hERG Patch Clamp hERG % blk (1 μm test cmpd) [2]: 28.5% | hERG Patch Clamp hERG % blk (10 μm test cmpd) [2]: 51.0%

Cc1nc2ccccc2c(C)c1C(=O)OCc1ccc(Cl)cc1 [PT-019, 4-chlorobenzyl 2,4-dimethylquinoline-3-carboxylate]
Late Ina % blk (1 μM test cmpd) ([1]; 1 μM test compound): 22.5% | inhibition at 10 µM [1]: 70.1% | hERG Patch Clamp hERG % blk (1 μm test cmpd) [2]: 10.0% | hERG Patch Clamp hERG % blk (10 μm test cmpd) [2]: 62.5%
